Paper PMC10797667 (ACS catalysis, 2020)

Experiments:
[1] = molecular target: ANT4' (aminoglycoside nucleotidyl transferase 4') (Staphylococcus aureus, UniProt P05057, E52D/T130K); assay: biochemical
[2] = molecular target: ANT4' (aminoglycoside nucleotidyl transferase 4') (Staphylococcus aureus, UniProt P05057, T130K); assay: biochemical
[3] = molecular target: ANT4' (aminoglycoside nucleotidyl transferase 4') (Staphylococcus aureus, UniProt P05057); assay: X-ray crystal structure; type: binding; settings: binary complex, 0.1-0.2 M MgCl2, pH 7-8; active site

## NC[C@@H]1O[C@H](O[C@H]2[C@@H](O)[C@H](O[C@@H]3[C@@H](O)[C@H](N)C[C@H](N)[C@H]3O[C@H]3O[C@H](CN)[C@@H](O)[C@H](O)[C@H]3N)O[C@@H]2CO)[C@H](N)[C@@H](O)[C@@H]1O [neomycin]
[1]
  Kd: 870 ± 80 nM
[2]
  Kd: 340 ± 30 nM
[3]
  X-ray crystal structure: A binary neomycin complex was also determined in the wild-type ANT4’ enzyme
